Results: EP2242752B1, “[…] IMIDAZOLES AS HEPATITIS C VIRUS INHIBITORS” (Bristol-Myers Squibb Company, priority 2008, dated 2009)
pEC50: −log10 of the molar value.

System: HCV 1b genotype
Assay: HCV Replicon assay (HCV 16-377-neo replicon cells)
Type: cell-based
Settings: Hepatitis C virus; HCV 1b genotype replicon cells; read-out: EC50 ranges against HCV 1b
Procedure: An HCV Replion assay was utilized in the present disclosure, and was prepared, conducted and validated as described in commonly owned PCT/US2006/022197 and in O'Boyle et. al. Antimicrob Agents Chemother. 2005 Apr;49(4): 1346-53.
HCV 16-377-neo replicon cells were used to test the currently described compound series as well as cells resistant to compound A due to a Y2065H mutation in NS5A (described in application PCT/US2006/022197). The compounds tested were determined to have more than 10-fold less inhibitory activity on cells resistant to compound A than wild-type cells indicating a related mechanism of action between the two compound series. Thus, the compounds of the present disclosure can be effective to inhibit the function of the HCV NS5A protein and are understood to be as effective in combinations as previously described in application PCT/US2006/022197 and commonly owned WO/O4014852. Further, the compounds of the present disclosure can be effective against the HCV 1b genotype. It should also be understood that the compounds of the present disclosure can inhibit multiple genotypes of HCV. […] In one embodiment compounds of the present disclosure are active against the 1a, 1b, 2a, 2b, 3a, 4a, and 5a genotypes.

CCCc1[nH]c([C@@H]2CCCN2C(=O)[C@@H](c2ccccc2)N(CC)CC)nc1-c1ccc(-c2ccc(-c3c[nH]c([C@@H]4CCCN4C(=O)[C@@H](c4ccccc4)N(CC)CC)n3)cc2)cc1 [Example J14c.1, (1R)-2-((2S)-2-(4-(4'-(2-((2S)-1-((2R)-2-(diethylamino)-2-phenylacetyl)-2-pyrrolidinyl)-1H-imidazol-4-yl)-4-biphenylyl)-5-propyl-1H-imidazol-2-yl)-1-pyrrolidinyl)-N,N-diethyl-2-oxo-1-phenylethanamine]
pEC50: 9.00 to 12.00

CCCc1[nH]c([C@@H]2CCCN2C(=O)[C@@H](NC(=O)OC)C(C)C)nc1-c1ccc(-c2ccc(-c3c[nH]c([C@@H]4CCCN4C(=O)[C@@H](NC(=O)OC)C(C)C)n3)cc2)cc1 [Example J14c.2, methyl ((1S)-1-(((2S)-2-(4-(4'-(2-((2S)-1-((2S)-2-((methoxycarbonyl)amino)-3-methylbutanoyl)-2-pyrrolidinyl)-1H-imidazol-4-yl)-4-biphenylyl)-5-propyl-1H-imidazol-2-yl)-1-pyrrolidinyl)carbonyl)-2-methylpropyl)carba mate]
pEC50: 9.00 to 12.00

COC(=O)N[C@H](C(=O)N1CC(F)(F)C[C@H]1c1nc(-c2ccc(-c3ccc(-c4c[nH]c([C@@H]5CCCN5C(=O)[C@@H](NC(=O)OC)C(C)C)n4)c(F)c3)cc2)c[nH]1)C(C)C [Example J14e, methyl ((1S)-1-(((2S)-4,4-difluoro-2-(4-(3'-fluoro-4'-(2-((2S)-1-((2S)-2-((methoxycarbonyl)amino)-3-methylbutanoyl)-2-pyrrolidinyl)-1H-imidazol-4-yl)-4-biphenylyl)-1H-imidazol-2-yl)-1-pyrrolidinyl)carbonyl)-2-methylpropyl)carba mate]
pEC50: 9.00 to 12.00

CCN(CC)[C@@H](C(=O)N1CC(F)(F)C[C@H]1c1nc(-c2ccc(-c3ccc(-c4c[nH]c([C@@H]5CCCN5C(=O)[C@@H](c5ccccc5)N(CC)CC)n4)c(F)c3)cc2)c[nH]1)c1ccccc1 [Example J14e.1, (1R)-2-((2S)-2-(4-(4'-(2-((2S)-1-((2R)-2-(diethylamino)-2-phenylacetyl)-4,4-difluoro-2-pyrrolidinyl)-1H-imidazol-4-yl)-3-fluoro-4-biphenylyl)-1H-imidazol-2-yl)-1-pyrrolidinyl)-N,N-diethyl-2-oxo-1-phenylethanamine]
pEC50: 9.00 to 12.00

COC(=O)N[C@H](C(=O)N1CCC[C@H]1c1nc(-c2ccc(-c3ccc(-c4[nH]c([C@@H]5CCCN5C(=O)[C@@H](NC(=O)OC)C(C)C)nc4CO)cc3)cc2)c[nH]1)C(C)C [Example J14f, methyl ((1S)-1-(((2S)-2-(4-(hydroxymethyl)-5-(4'-(2-((2S)-1-((2S)-2-((methoxycarbonyl)amino)-3-methylbutanoyl)-2-pyrrolidinyl)-1H-imidazol-4-yl)-4-biphenylyl)-1H-imidazol-2-yl)-1-pyrrolidinyl)carbonyl)-2-methylpropyl)carba mate]
pEC50: 9.00 to 12.00

COC(=O)N[C@@H](C)C(=O)N1CCC[C@H]1c1nc(-c2ccc(-c3ccc(-c4[nH]c([C@@H]5CCCN5C(=O)[C@H](C)NC(=O)OC)nc4CO)cc3)cc2)c[nH]1 [Example J14f.1, methyl ((1S)-2-((2S)-2-(4-(4'-(4-(hydroxymethyl)-2-((2S)-1-(N-(methoxycarbonyl)-L-alanyl)-2-pyrrolidinyl)-1H-imidazol-5-yl)-4-biphenylyl)-1H-imidazol-2-yl)-1-pyrrolidinyl)-1-methyl-2-oxoethyl)carbamate]
pEC50: 7.00 to 9.00

COC(=O)N[C@@H](C)C(=O)N1[C@@H]2C[C@@H]2C[C@H]1c1ncc(-c2ccc(-c3ccc(-c4cnc([C@@H]5C[C@H]6C[C@H]6N5C(=O)[C@H](C)NC(=O)OC)[nH]4)cc3)cc2)[nH]1 [Example M132, methyl ((1S)-2-((1R,3S,5R)-3-(4-(4'-(2-((1R,3S,SR)-2-(N(methoxycarbonyl)-L-alanyl)-2-azabicyclo[3.1.0]hex-3-yl)-1H-imidazol-4-yl)-4-biphenyl)-1H-imidazol-2-yl)-2-azabicyclo[3.1.0]hex-2-yl)-1-methyl-2-oxoethyl)carbamate]
pEC50: 9.00 to 12.00

CC[C@H](NC(=O)OC)C(=O)N1[C@@H]2C[C@@H]2C[C@H]1c1nc(-c2ccc(-c3ccc(-c4c[nH]c([C@@H]5C[C@H]6C[C@H]6N5C(=O)[C@H](CC)NC(=O)OC)n4)cc3)cc2)c[nH]1 [Example M133, dimethyl (4,4'-biphenyldiylbis(1H-imidazole-4,2-diyl(1R,3S,5R)-2-azabicyclo[3.1.0]hexane-3,2-diyl((2S)-1-oxo-1,2-butanediyl)))biscarbamate]
pEC50: 9.00 to 12.00

COC(=O)N[C@H](C(=O)N1[C@@H]2C[C@@H]2C[C@H]1c1nc(-c2ccc(-c3ccc(-c4c[nH]c([C@@H]5C[C@H]6C[C@H]6N5C(=O)[C@@H](NC(=O)OC)C5CC5)n4)cc3)cc2)c[nH]1)C1CC1 [Example M135, dimethyl (4,4'-biphenyldiylbis(1H-imidazole-4,2-diyl(1R,3S,5R)-2-azabicyclo[3.1.0]hexane-3,2-diyl((1S)-1-cyclopropyl-2-oxo-2,1-ethanediyl)))biscarbamate]
pEC50: 9.00 to 12.00

COC(=O)N[C@@H](C(=O)N1[C@@H]2C[C@@H]2C[C@H]1c1nc(-c2ccc(-c3ccc(-c4c[nH]c([C@@H]5C[C@H]6C[C@H]6N5C(=O)[C@H](NC(=O)OC)C(C)C)n4)cc3)cc2)c[nH]1)C(C)C [Example M136, methyl ((1R)-1-(((1R,3S,5R)-3-(4-(4'-(2-((1R,3S,5R)-2-((2R)-2-((methoxycarbonyl)amino)-3-methylbutanoyl)-2-azabicyclo[3.1.0]hex-3-yl)-1H-imidazol-4-yl)-4-biphenylyl)-1H-imidazol-2-yl)-2-azabicyclo[3.1.0]hex-2-yl)carbonyl)-2-methylpropyl)carbamate]
pEC50: 7.00 to 9.00

COC(=O)N[C@H](C(=O)N1[C@@H]2C[C@@H]2C[C@H]1c1ncc(-c2ccc(-c3ccc(-c4cnc([C@@H]5C[C@H]6C[C@H]6N5C(=O)CCCC[C@@H]5SC[C@@H]6NC(=O)N[C@@H]65)[nH]4)cc3)cc2)[nH]1)C(C)C [Example M139]
pEC50: 9.00 to 12.00

CC(=O)N[C@H](C(=O)N1[C@@H]2C[C@@H]2C[C@H]1c1ncc(-c2ccc(-c3ccc(-c4cnc([C@@H]5C[C@H]6C[C@H]6N5C(=O)[C@@H](NC(C)=O)C(C)C)[nH]4)cc3)cc2)[nH]1)C(C)C [Example M140, N((1S)-1-(((1R,3S,SR)-3-(4-(4'-(2-((1R,3S,SR)-2-((2S)-2-acetamido-3-methylbutanoyl)-2-azabicyclo[3.1.0]hex-3-yl)-1H-imidazol-4-yl)-4-biphenylyl)-1H imidazol-2-yl)-2-azabicyclo[3.1.0]hex-2-yl)carbonyl)-2-methylpropyl)acetamide]
pEC50: 9.00 to 12.00

CC(C)[C@H](N)C(=O)N1[C@@H]2C[C@@H]2C[C@H]1c1nc(-c2ccc(-c3ccc(-c4cnc([C@@H]5C[C@H]6C[C@H]6N5C(=O)[C@@H](N)C(C)C)[nH]4)cc3)cc2)c[nH]1 [Example M140a-i, (2S)-1-((1R,3S,5R)-3-(4-(4'-(2-((1R,3S,5R)-2-((2S)-2-amino-3-methylbutanoyl)-2-azabicyclo[3.1.0]hex-3-yl)-1H-imidazol-5-yl)-4-biphenylyl)-1H-imidazol-2-yl)-2-azabicyclo[3.1.0]hex-2-yl)-3-methyl-1-oxo-2-butanamine]
pEC50: 7.00 to 9.00

CC(C)[C@H](N)C(=O)N1[C@@H]2C[C@@H]2C[C@H]1c1ncc(-c2ccc(-c3ccc(-c4cnc([C@@H]5C[C@H]6C[C@H]6N5C(=O)[C@@H](N)C(C)C)[nH]4)cc3)cc2)[nH]1 [Example M140a-ii]
pEC50: 7.00 to 9.00
